Results taken from patent US8883199B2, “Administration regime for N-hydroxy-4-{2-[3-(N,N-dimethylaminomethyl)benzofuran-2-ylcarbonylamino]ethoxy}benzamide” (priority 2011, dated 2014).

Columns and labels:
[1] = test system: patients with solid tumours; experiment: Clinical Study 1: toxicity and efficacy in monotherapy, two p.o. administration regimes
Experimental: A clinical study was set up to test the toxicity and efficacy of N-hydroxy-4-{2-[3-(N,N-dimethylaminomethyl)benzofuran-2-ylcarbonylamino]ethoxy}benzamide hydrochloride. 36 patients with solid tumours were included and treated in this study. A first administration regime was tested over a cycle of three weeks, with 14 consecutive days of 2 p.o. administrations 4 hours apart, followed by a week without treatment. Four dosage levels were successively tested from 30 to 75 mg/m^2 (expressed as a salt) twice daily. The acceptability of the various N-hydroxy-4-{2-[3-(N,N-dimethylaminomethyl)-benzofuran-2-ylcarbonylamino]ethoxy}benzamide dose levels were evaluated (especially, haematological toxicities) at the end of the first cycle.
This cycle can be repeated as many times as necessary for treatment of the cancer.

[2] = test system: histone deacetylase (HDAC); conditions: cited from earlier work
[3] = test system: cultured tumour cells; conditions: cultured tumour cells in vitro; cited from earlier work
[4] = test system: xenograft models; conditions: in vivo; cited from earlier work

CN(C)Cc1c(C(=O)NCCOc2ccc(C(=O)NO)cc2)oc2ccccc12 [N-hydroxy-4-{2-[3-(N,N-dimethylaminomethyl)benzofuran-2-ylcarbonylamino]ethoxy}benzamide]
maximum tolerated dose ([1]; first regime: 14 consecutive days of 2 p.o. administrations 4 hours apart, then a week without treatment, hydrochloride, dose expressed as a salt, 36 patients with solid tumours): 75 mg/m^2 twice daily
platelet toxicity, second regime compared with first regime ([1]; human, in vivo): less platelet toxicity than the previous regime
reversibility of thrombopenias ([1]; human, in vivo): reversible
toxicities which limited increasing the dose ([1]; human, in vivo, 3 weeks): grade 4 thrombopenias
recommended dose ([1]; human, in vivo, po, 3 weeks): 90 mg/m^2 twice daily
maximum tolerated dose ([1]; second regime: 4 consecutive days of 2 p.o. administrations 4 hours apart, then 3 days without treatment, each of the 3 weeks of a cycle): 105 mg/m^2 twice daily
histone deacetylase (HDAC) inhibition [2]: powerful
apoptosis [3]: induces apoptosis
cell growth [3]: inhibition of cell growth
tumour growth [4]: inhibits tumour growth
